# In article doi:10.1101/2021.06.08.447613v1 (biorxiv, 2021):
# Target: M^Pro (SARS-CoV-2 main protease) (Severe acute respiratory syndrome coronavirus 2, UniProt P0DTD1)
# Experiment: fluorogenic peptide substrate cleavage, […] min preincubation
# Type: biochemical
# Conditions: pH 7.6, 37 °C, 50 nM enzyme, 10 μM substrate
smiles,measurement,value
CCN(CC)CCCC(C)Nc1ccnc2cc(Cl)ccc12 (stereo not shown) [chloroquine],% activity retained at 16 μM,84%
